Experimental findings from ChEMBL document CHEMBL3352084, “Bioactive compounds from the insect Aspongopus chinensis” (Bioorg Med Chem Lett, 2014) are described below.

For data set [1], the target named is Prostaglandin G/H synthase 2 (Homo sapiens, UniProt P35354). The experiment in a line: Inhibition of human recombinant COX2 pre-incubated for 15 mins before arachidonic acid addition by fluorescence micro plate reader method.
The nature of data set [2]: Retention time of the compound by […] method. It is filed as physicochemical.
Data set [3] concerns Rattus norvegicus. The experiment in a line: Inhibition of high glucose-induced IL6 production in rat renal mesangial cells dosed for 1 hr before 30 mM D-glucose stimulation for 24 hrs by ELISA. It is filed as functional.
Data set [4] has as its system Rattus norvegicus. The experiment in a line: Inhibition of high glucose-induced collagen 4 production in rat renal mesangial cells dosed for 1 hr before 30 mM D-glucose stimulation for 24 hrs by ELISA. It is filed as functional. Background: An ELISA detects its analyte on a solid surface through an enzyme-linked reagent.
The subject of data set [5] is Rattus norvegicus. The experiment in a line: Inhibition of high glucose-induced fibronectin production in rat renal mesangial cells dosed for 1 hr before 30 mM D-glucose stimulation for 24 hrs by ELISA. It is filed as functional.

The source made the active and inactive calls. No cut-off for these calls is given here.

A word on the IC50: it is the point on the concentration scale where inhibition reaches its midpoint.

Chain of Prostaglandin G/H synthase 2 (P35354 whole entry, looked up): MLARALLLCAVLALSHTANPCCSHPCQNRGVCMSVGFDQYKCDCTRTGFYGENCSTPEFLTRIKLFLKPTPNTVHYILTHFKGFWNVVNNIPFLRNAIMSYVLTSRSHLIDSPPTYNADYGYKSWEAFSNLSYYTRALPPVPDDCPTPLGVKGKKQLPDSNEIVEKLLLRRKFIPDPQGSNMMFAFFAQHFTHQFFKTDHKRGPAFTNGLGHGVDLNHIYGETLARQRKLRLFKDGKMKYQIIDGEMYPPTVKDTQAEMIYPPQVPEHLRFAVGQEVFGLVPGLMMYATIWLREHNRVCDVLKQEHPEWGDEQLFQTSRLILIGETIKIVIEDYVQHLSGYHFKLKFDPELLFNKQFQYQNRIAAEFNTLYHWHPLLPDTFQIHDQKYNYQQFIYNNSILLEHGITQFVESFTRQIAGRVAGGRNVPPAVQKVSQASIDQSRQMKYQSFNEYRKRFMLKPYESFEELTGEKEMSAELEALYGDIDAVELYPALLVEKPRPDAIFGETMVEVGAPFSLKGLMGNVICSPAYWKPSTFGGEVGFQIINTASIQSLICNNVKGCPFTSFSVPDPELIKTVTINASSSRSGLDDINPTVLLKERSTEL

In the case of `CC(=O)/C=C/c1ccc(O)c(O)c1`, the half-maximal inhibitory concentration (IC50) in data set [1] is 22.2 µM.

The compound `C/C(=C/CCC(C)c1cc(O[C@@H]2O[C@H](CO)[C@@H](O)[C@H](O)[C@H]2O)c(O)cc1C)C(=O)O` (some centres not stated) had a Retention_time in data set [2] of 25.461 min.

Take `CC(=O)N/C=C\c1ccc2c(c1)OC(c1ccc(O)c(O)c1)C(NC(C)=O)O2` (configuration not stated): the concentration for half-maximal inhibition (IC50) in data set [1] is 6.5 µM. Moreover, the inhibition entry with Rattus norvegicus [3], in the data set with Rattus norvegicus [4] and in the data set with Rattus norvegicus [5] was “Active” throughout.

`CC(=O)NC[C@@H](OC[C@H](O)CO)c1ccc(O)c(O)c1`: the 50% inhibitory concentration (IC50) in data set [1] was found to be 117 µM.

`CCc1nc(C)ccc1O`: the inhibition entry in the data set on Rattus norvegicus [3], with Rattus norvegicus [4] and in the data set with Rattus norvegicus [5] was “Active” in each case.

In the case of `CC(C)C[C@@H]1NC(=O)[C@H](Cc2c[nH]c3ccccc23)NC1=O`, the inhibition entry in the data set with Rattus norvegicus [3], in the data set with Rattus norvegicus [4] and with Rattus norvegicus [5] was “Active” in each case.

For the compound `CC(=O)N/C=C\c1ccc2c(c1)OC(NC(C)=O)C(c1ccc(O)c(O)c1)O2` (configuration not stated), the inhibition result in the data set on Rattus norvegicus [3], in the data set with Rattus norvegicus [4] and in the data set on Rattus norvegicus [5] was “Active” each time.

Take `CC(=O)NCCc1ccc(O)c(O)c1`: the IC50 in data set [1] came to 18.9 µM.
